Drawing on PubChem BioAssay AID1745844 (Carcinogenic Potency Database (CPDB), 2022), this text covers TD50 and carcinogen call for ten molecules.

The data set has as its system rodent lifetime carcinogenesis bioassay, tumor incidence TD50. In words: carcinogenic potency in animals, long-term in vivo studies, CPDB compilation (AID 1745844).

SMILES strings stand for the structures. Active and inactive are the calls of the source. No rule for the calls is given here.

Regarding `ClCc1cccnc1`, the TD50 (in general, the 50% point of the dose-response relation for the toxic effect studied) reads like this: (mouse, strain B6C3F1, females, by gavage, site: any site (literature study), lesion: several types, types named in the paper, dosed 91 weeks, study length 104 weeks) 141 mg/kg/day; (mouse, strain B6C3F1, females, by gavage, site: liver, lesion: hepatocellular adenoma + hepatocellular carcinoma + neoplastic nodule, dosed 91 weeks, study length 104 weeks) 16300 mg/kg/day; (mouse, strain B6C3F1, females, by gavage, site: lung, lesion: alveolar/bronchiolar adenoma + alveolar/bronchiolar carcinoma, dosed 91 weeks, study length 104 weeks) 1970 mg/kg/day; (mouse, strain B6C3F1, females, by gavage, site: stomach, lesion: squamous-cell carcinoma + squamous-cell papilloma, dosed 91 weeks, study length 104 weeks) 394 mg/kg/day; (mouse, strain B6C3F1, males, by gavage, site: any site (literature study), lesion: several types, types named in the paper, dosed 91 weeks, study length 104 weeks) 64.9 mg/kg/day; (mouse, strain B6C3F1, males, by gavage, site: liver, lesion: hepatocellular adenoma + hepatocellular carcinoma + neoplastic nodule, dosed 91 weeks, study length 104 weeks) 324 mg/kg/day. Besides, the TD50 was 624 mg/kg/day (mouse, strain B6C3F1, males, by gavage, site: lung, lesion: alveolar/bronchiolar adenoma + alveolar/bronchiolar carcinoma, dosed 91 weeks, study length 104 weeks); 161 mg/kg/day (mouse, strain B6C3F1, males, by gavage, site: stomach, lesion: squamous-cell carcinoma + squamous-cell papilloma, dosed 91 weeks, study length 104 weeks); 160 mg/kg/day (inactive) (rat, strain Fischer 344, females, by gavage, site: any site (literature study), lesion: several types, types named in the paper, dosed 93 weeks, study length 104 weeks); 433 mg/kg/day (rat, strain Fischer 344, males, by gavage, site: stomach, lesion: squamous-cell carcinoma + squamous-cell papilloma, dosed 93 weeks, study length 104 weeks).

As for `O=CNNC=O`, the TD50 reads like this: (mouse, strain Swiss albino, females, in drinking water, site: liver, lesion: hepatoma, dosed 83 weeks, study length 83 weeks) 7820 mg/kg/day (inactive); (mouse, strain Swiss albino, females, in drinking water, site: liver, lesion: several types, types named in the paper, dosed 83 weeks, study length 83 weeks) 89200 mg/kg/day; (mouse, strain Swiss albino, females, in drinking water, site: lung, lesion: adenocarcinoma, dosed 83 weeks, study length 83 weeks) 2170 mg/kg/day; (mouse, strain Swiss albino, females, in drinking water, site: lung, lesion: adenoma, dosed 83 weeks, study length 83 weeks) 561 mg/kg/day; (mouse, strain Swiss albino, females, in drinking water, site: lung, lesion: several types, types named in the paper, dosed 83 weeks, study length 83 weeks) 571 mg/kg/day; (mouse, strain Swiss albino, males, in drinking water, site: liver, lesion: hepatoma, dosed 83 weeks, study length 83 weeks) 11300 mg/kg/day (inactive). Also, the TD50 is 8140 mg/kg/day (mouse, strain Swiss albino, males, in drinking water, site: liver, lesion: several types, types named in the paper, dosed 83 weeks, study length 83 weeks); 4530 mg/kg/day (mouse, strain Swiss albino, males, in drinking water, site: lung, lesion: adenocarcinoma, dosed 83 weeks, study length 83 weeks); 779 mg/kg/day (mouse, strain Swiss albino, males, in drinking water, site: lung, lesion: adenoma, dosed 83 weeks, study length 83 weeks); 806 mg/kg/day (mouse, strain Swiss albino, males, in drinking water, site: lung, lesion: several types, types named in the paper, dosed 83 weeks, study length 83 weeks).

`O=[N+]([O-])c1ccc(O)c([N+](=O)[O-])c1`: the carcinogen call (mouse, strain DBA, females, in feed, site: mammary gland, lesion: carcinoma, dosed 90 weeks, study length 90 weeks) was “negative (inactive)”.

In the case of `CCOc1ccccc1C(N)=O`, the TD50 was 3310 mg/kg/day (mouse, strain B6C3F1, females, in feed, site: liver, lesion: several types, types named in the paper, dosed 96 weeks, study length 100 weeks) and 513 mg/kg/day (mouse, strain B6C3F1, males, in feed, site: liver, lesion: several types, types named in the paper, dosed 96 weeks, study length 100 weeks).

As for `ClCOCCCCCCOCCl`, the carcinogen call (mouse, strain Ha/ICR, females, i.p., site: abdomen, lesion: sarcoma, dosed 81 weeks, study length 81 weeks) is “negative (inactive)”.

As for `O=C([O-])c1cc(N=Nc2ccc(-c3ccc(N=Nc4c(O)ccc(N=Nc5cc(S(=O)(=O)[O-])ccc5[O-])c4[O-])cc3)cc2)ccc1O.[Cu+2].[Na+].[Na+]`, the TD50 (rat, strain Fischer 344, females, in feed, site: any site (literature study), lesion: several types, types named in the paper, dosed 13 weeks, study length 13 weeks) was found to be 2.07 mg/kg/day; the TD50 (rat, strain Fischer 344, females, in feed, site: liver, lesion: hepatocellular adenoma + hepatocellular carcinoma + neoplastic nodule, dosed 13 weeks, study length 13 weeks) is 2.07 mg/kg/day; the TD50 (rat, strain Fischer 344, females, in feed, site: liver, lesion: hepatocellular carcinoma + neoplastic nodule, dosed 13 weeks, study length 13 weeks) was 2.07 mg/kg/day. The carcinogen call (rat, strain Fischer 344, males, in feed, site: any site (literature study), lesion: several types, types named in the paper, dosed 13 weeks, study length 13 weeks) is “negative (inactive)”.

Consider `O=NN1CCOC1`, for which the TD50 is, setting by setting: (hamster, strain Syrian Golden, females, by gavage, site: forestomach, lesion: several types, types named in the paper, dosed 30 weeks, study length 104 weeks) 2.61 mg/kg/day; (hamster, strain Syrian Golden, males, by gavage, site: any site (literature study), lesion: several types, types named in the paper, dosed 35 weeks, study length 65 weeks) 0.267 mg/kg/day; (hamster, strain Syrian Golden, males, by gavage, site: liver, lesion: cholangiocarcinoma, dosed 35 weeks, study length 65 weeks) 0.471 mg/kg/day; (hamster, strain Syrian Golden, males, by gavage, site: liver, lesion: hepatocellular adenoma, dosed 35 weeks, study length 65 weeks) 0.949 mg/kg/day; (hamster, strain Syrian Golden, males, by gavage, site: liver, lesion: hepatocellular carcinoma, dosed 35 weeks, study length 65 weeks) 2.63 mg/kg/day; (hamster, strain Syrian Golden, males, by gavage, site: lung, lesion: carcinoma, dosed 35 weeks, study length 65 weeks) 14.8 mg/kg/day.

`CCOc1ccc(NC(C)=O)cc1[N+](=O)[O-]`: the carcinogen call (mouse, strain B6C3F1, females, in feed, site: any site (literature study), lesion: several types, types named in the paper, dosed 78 weeks, study length 97 weeks) was “negative (inactive)”; the carcinogen call (rat, strain Fischer 344, females, in feed, site: any site (literature study), lesion: several types, types named in the paper, dosed 78 weeks, study length 106 weeks) was “negative (inactive)”; the carcinogen call (rat, strain Fischer 344, males, in feed, site: any site (literature study), lesion: several types, types named in the paper, dosed 78 weeks, study length 105 weeks) was “negative (inactive)”. For the same molecule, the TD50 is, setting by setting: (mouse, strain B6C3F1, females, in feed, site: lung, lesion: alveolar/bronchiolar adenoma + alveolar/bronchiolar carcinoma, dosed 78 weeks, study length 97 weeks) 30800 mg/kg/day; (mouse, strain B6C3F1, males, in feed, site: any site (literature study), lesion: several types, types named in the paper, dosed 78 weeks, study length 98 weeks) 3490 mg/kg/day; (mouse, strain B6C3F1, males, in feed, site: liver, lesion: hepatocellular adenoma + hepatocellular carcinoma + neoplastic nodule, dosed 78 weeks, study length 98 weeks) 2270 mg/kg/day; (mouse, strain B6C3F1, males, in feed, site: liver, lesion: hepatocellular adenoma + hepatocellular carcinoma, dosed 78 weeks, study length 98 weeks) 2270 mg/kg/day; (rat, strain Fischer 344, females, in feed, site: liver, lesion: hepatocellular adenoma + hepatocellular carcinoma + neoplastic nodule, dosed 78 weeks, study length 106 weeks) 6240 mg/kg/day.

As to `O=S(=O)(c1ccc(Cl)cc1)c1cc(Cl)c(Cl)cc1Cl`, the TD50 was 233 mg/kg/day (inactive) (mouse, strain B6AKF1, females, oral dosing, site: any site (literature study), lesion: several types, types named in the paper, dosed 76 weeks, study length 76 weeks); 233 mg/kg/day (inactive) (mouse, strain B6AKF1, females, oral dosing, site: liver, lesion: hepatoma, dosed 76 weeks, study length 76 weeks); 220 mg/kg/day (inactive) (mouse, strain B6C3F1, females, oral dosing, site: any site (literature study), lesion: several types, types named in the paper, dosed 76 weeks, study length 76 weeks); 35.6 mg/kg/day (inactive) (mouse, strain B6C3F1, males, oral dosing, site: any site (literature study), lesion: several types, types named in the paper, dosed 76 weeks, study length 76 weeks); 46.2 mg/kg/day (inactive) (mouse, strain B6C3F1, males, oral dosing, site: liver, lesion: hepatoma, dosed 76 weeks, study length 76 weeks); 205 mg/kg/day (inactive) (mouse, strain B6C3F1, males, oral dosing, site: lung, lesion: adenoma, dosed 76 weeks, study length 76 weeks). In addition, the carcinogen call was “negative (inactive)” (mouse, strain B6AKF1, females, oral dosing, site: lung, lesion: adenoma, dosed 76 weeks, study length 76 weeks); “negative (inactive)” (mouse, strain B6AKF1, males, oral dosing, site: any site (literature study), lesion: several types, types named in the paper, dosed 76 weeks, study length 76 weeks); “negative (inactive)” (mouse, strain B6AKF1, males, oral dosing, site: liver, lesion: hepatoma, dosed 76 weeks, study length 76 weeks); “negative (inactive)” (mouse, strain B6AKF1, males, oral dosing, site: lung, lesion: adenoma, dosed 76 weeks, study length 76 weeks); “negative (inactive)” (mouse, strain B6C3F1, females, oral dosing, site: liver, lesion: hepatoma, dosed 76 weeks, study length 76 weeks); “negative (inactive)” (mouse, strain B6C3F1, females, oral dosing, site: lung, lesion: several types, types named in the paper, dosed 76 weeks, study length 76 weeks).

As for `C=CCc1ccc(O)c(OC)c1`, the TD50 is, setting by setting: (mouse, strain B6C3F1, females, in feed, site: liver, lesion: hepatocellular adenoma + hepatocellular carcinoma + neoplastic nodule, dosed 103 weeks, study length 104 weeks) 2910 mg/kg/day; (mouse, strain B6C3F1, females, in feed, site: liver, lesion: hepatocellular adenoma + hepatocellular carcinoma, dosed 103 weeks, study length 104 weeks) 2910 mg/kg/day; (mouse, strain B6C3F1, females, in feed, site: lung, lesion: alveolar/bronchiolar adenoma + alveolar/bronchiolar carcinoma, dosed 103 weeks, study length 104 weeks) 25300 mg/kg/day; (mouse, strain B6C3F1, males, in feed, site: any site (literature study), lesion: several types, types named in the paper, dosed 103 weeks, study length 104 weeks) 1550 mg/kg/day; (mouse, strain B6C3F1, males, in feed, site: liver, lesion: hepatocellular adenoma + hepatocellular carcinoma + neoplastic nodule, dosed 103 weeks, study length 104 weeks) 451 mg/kg/day; (mouse, strain B6C3F1, males, in feed, site: liver, lesion: hepatocellular adenoma + hepatocellular carcinoma, dosed 103 weeks, study length 104 weeks) 451 mg/kg/day. The TD50 by setting is: (mouse, strain B6C3F1, males, in feed, site: liver, lesion: hepatocellular adenoma, dosed 103 weeks, study length 104 weeks) 781 mg/kg/day; (mouse, strain B6C3F1, males, in feed, site: liver, lesion: hepatocellular carcinoma, dosed 103 weeks, study length 104 weeks) 710 mg/kg/day; (mouse, strain B6C3F1, males, in feed, site: thyroid gland, lesion: follicular-cell adenoma, dosed 103 weeks, study length 104 weeks) 8520 mg/kg/day; (rat, strain Fischer 344, males, in feed, site: any site (literature study), lesion: several types, types named in the paper, dosed 103 weeks, study length 104 weeks) 293 mg/kg/day; (rat, strain Fischer 344, males, in feed, site: lung, lesion: alveolar/bronchiolar adenoma + alveolar/bronchiolar carcinoma, dosed 103 weeks, study length 104 weeks) 424 mg/kg/day (inactive). Besides, the carcinogen call was “negative (inactive)” (mouse, strain Charles River CD1, females, in feed, site: liver, lesion: one or several types, types not named, dosed 50 weeks, study length 78 weeks); “negative (inactive)” (mouse, strain Charles River CD1, females, in feed, site: lung, lesion: adenoma, dosed 50 weeks, study length 78 weeks); “negative (inactive)” (rat, strain Fischer 344, females, in feed, site: any site (literature study), lesion: several types, types named in the paper, dosed 103 weeks, study length 104 weeks).
